The values that follow come from patent US7598245B2 (Vertex Pharmaceuticals Incorporated, priority 2003, dated 2009).

As usually defined, the Ki is a measure of affinity in units of concentration, obtained from inhibition or displacement.

Type in all cases: biochemical
Assay [1] has as its target T1, CDK-2/Cyclin A (Homo sapiens, UniProt P24941).
T1 construct: 25 nM CDK-2/Cyclin A
Put plainly: Inhibition of CDK-2, coupled enzyme assay. To be noted: 100 μM ATP, 30° C. As to the method:
Compounds are screened for their ability to inhibit CDK-2/Cyclin A using a standard coupled enzyme assay [Fox et al. Protein Sci. 1998, 7, 2249]. Reactions were carried out in 100 mM HEPES (pH 7.5), 10 mM MgCl2, 25 mM NaCl, 1 mM DTT and 1.5% DMSO. Final substrate concentrations in the assay are 100 μM ATP (Sigma chemicals) and 100 μM peptide (American Peptide, Sunnyvale, Calif.). Assays are carried out at 30° C. and 25 nM CDK-2/Cyclin A. Final concentrations of the components of the coupled enzyme system are 2.5 mM phosphoenolpyruvate, 350 μM NADH, 30 μg/ml pyruvate kinase and 10 μg/ml lactate dehydrogenase.
An assay stock buffer solution is prepared containing all of the reagents listed above, with the exception of CDK-2/Cyclin A, DTT and the test compound of interest. 56 μl of the test reaction is placed in a 384 well plate followed by addition of 1 μl of 2 mM DMSO stock containing the test compound (final compound concentration 30 μM). The plate is preincubated for ˜10 minutes at 30° C. and the reaction initiated by addition of 10 μl of enzyme (final concentration 25 nM). Rates of reaction are obtained using a BioRad Ultramark plate reader (Hercules, Calif.) over a 5 minute read time at 30° C. Ki values are determined according to standard methods.

Assay [2] has as its target KDR (Homo sapiens, UniProt P35968). Put plainly: Inhibition of KDR, coupled enzyme assay. The note with it: 300 μM ATP, 37° C. How it is done:
Compounds were screened for their ability to inhibit KDR using a standard coupled enzyme assay (Fox et al., Protein Sci., (1998) 7, 2249). Assays were carried out in a mixture of 200 mM HEPES 7.5, 10 mM MgCl2, 25 mM NaCl, 1 mM DTT and 1.5% DMSO. Final substrate concentrations in the assay were 300 μM ATP (Sigma Chemicals) and 10 μM poly E4Y (Sigma). Assays were carried out at 37° C. and 30 nM KDR. Final concentrations of the components of the coupled enzyme system were 2.5 mM phosphoenolpyruvate, 200 μM NADH, 30 μg/ML pyruvate kinase and 10 μg/ml lactate dehydrogenase.
An assay stock buffer solution was prepared containing all of the reagents listed above, with the exception of ATP and the test compound of interest. 177 μl of the stock solution was placed in a 96 well plate followed by addition of 3 μl of 2 mM DMSO stock containing the test compound (final compound concentration 30 μM). The plate was preincubated for about 10 minutes at 37° C. and the reaction initiated by addition of 20 μl of ATP (final concentration 300 μM). Rates of reaction were obtained using a Molecular Devices plate reader (Sunnyvale, Calif.) over a 5 minute read time at 37° C.

In assay [3] the target is T2, JAK-3 (Homo sapiens, UniProt P52333).
T2 sequence (P52333 1-1124): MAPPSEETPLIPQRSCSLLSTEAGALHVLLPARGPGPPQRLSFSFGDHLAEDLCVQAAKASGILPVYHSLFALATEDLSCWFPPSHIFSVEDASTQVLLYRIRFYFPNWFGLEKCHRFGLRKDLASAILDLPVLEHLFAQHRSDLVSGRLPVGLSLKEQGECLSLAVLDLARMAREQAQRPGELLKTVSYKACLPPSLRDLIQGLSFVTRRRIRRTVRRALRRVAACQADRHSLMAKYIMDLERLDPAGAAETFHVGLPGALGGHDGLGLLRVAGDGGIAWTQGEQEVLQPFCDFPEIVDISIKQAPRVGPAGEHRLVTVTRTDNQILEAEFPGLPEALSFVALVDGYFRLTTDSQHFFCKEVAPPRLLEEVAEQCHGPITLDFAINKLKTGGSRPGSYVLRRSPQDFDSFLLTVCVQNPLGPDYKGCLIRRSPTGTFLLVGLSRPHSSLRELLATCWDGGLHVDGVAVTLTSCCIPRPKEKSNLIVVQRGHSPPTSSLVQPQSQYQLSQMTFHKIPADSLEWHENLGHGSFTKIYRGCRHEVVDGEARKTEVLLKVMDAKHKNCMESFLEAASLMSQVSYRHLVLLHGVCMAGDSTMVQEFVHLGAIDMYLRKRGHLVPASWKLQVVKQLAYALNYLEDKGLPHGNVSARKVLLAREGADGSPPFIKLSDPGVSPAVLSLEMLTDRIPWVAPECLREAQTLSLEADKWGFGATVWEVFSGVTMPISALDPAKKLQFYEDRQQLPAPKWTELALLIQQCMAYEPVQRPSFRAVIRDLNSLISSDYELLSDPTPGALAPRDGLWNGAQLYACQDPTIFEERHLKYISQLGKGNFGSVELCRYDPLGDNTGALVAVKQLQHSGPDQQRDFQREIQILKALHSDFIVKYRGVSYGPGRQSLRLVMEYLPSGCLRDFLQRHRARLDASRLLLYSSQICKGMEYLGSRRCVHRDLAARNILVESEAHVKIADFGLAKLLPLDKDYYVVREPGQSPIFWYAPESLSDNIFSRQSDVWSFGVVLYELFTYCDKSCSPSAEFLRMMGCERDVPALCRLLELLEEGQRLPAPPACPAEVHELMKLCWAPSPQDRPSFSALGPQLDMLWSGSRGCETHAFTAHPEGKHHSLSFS
Put plainly: JAK3 inhibition assay (ELISA, Poly (Glu, Ala, Tyr) coated plates). To be noted: 2 μM ATP. A digest of the protocol: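 ELISA on plates coated with poly(Glu,Ala,Tyr) 6:3:1, with 2 μM ATP, 5 mM MgCl2 and compound. Enzyme-started reaction ran 60 min at 30 °C. Phosphotyrosine detected with HRP-4G10 and TMB at 450 nm; Ki values derived.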

Sequence of KDR (P35968 20-1356): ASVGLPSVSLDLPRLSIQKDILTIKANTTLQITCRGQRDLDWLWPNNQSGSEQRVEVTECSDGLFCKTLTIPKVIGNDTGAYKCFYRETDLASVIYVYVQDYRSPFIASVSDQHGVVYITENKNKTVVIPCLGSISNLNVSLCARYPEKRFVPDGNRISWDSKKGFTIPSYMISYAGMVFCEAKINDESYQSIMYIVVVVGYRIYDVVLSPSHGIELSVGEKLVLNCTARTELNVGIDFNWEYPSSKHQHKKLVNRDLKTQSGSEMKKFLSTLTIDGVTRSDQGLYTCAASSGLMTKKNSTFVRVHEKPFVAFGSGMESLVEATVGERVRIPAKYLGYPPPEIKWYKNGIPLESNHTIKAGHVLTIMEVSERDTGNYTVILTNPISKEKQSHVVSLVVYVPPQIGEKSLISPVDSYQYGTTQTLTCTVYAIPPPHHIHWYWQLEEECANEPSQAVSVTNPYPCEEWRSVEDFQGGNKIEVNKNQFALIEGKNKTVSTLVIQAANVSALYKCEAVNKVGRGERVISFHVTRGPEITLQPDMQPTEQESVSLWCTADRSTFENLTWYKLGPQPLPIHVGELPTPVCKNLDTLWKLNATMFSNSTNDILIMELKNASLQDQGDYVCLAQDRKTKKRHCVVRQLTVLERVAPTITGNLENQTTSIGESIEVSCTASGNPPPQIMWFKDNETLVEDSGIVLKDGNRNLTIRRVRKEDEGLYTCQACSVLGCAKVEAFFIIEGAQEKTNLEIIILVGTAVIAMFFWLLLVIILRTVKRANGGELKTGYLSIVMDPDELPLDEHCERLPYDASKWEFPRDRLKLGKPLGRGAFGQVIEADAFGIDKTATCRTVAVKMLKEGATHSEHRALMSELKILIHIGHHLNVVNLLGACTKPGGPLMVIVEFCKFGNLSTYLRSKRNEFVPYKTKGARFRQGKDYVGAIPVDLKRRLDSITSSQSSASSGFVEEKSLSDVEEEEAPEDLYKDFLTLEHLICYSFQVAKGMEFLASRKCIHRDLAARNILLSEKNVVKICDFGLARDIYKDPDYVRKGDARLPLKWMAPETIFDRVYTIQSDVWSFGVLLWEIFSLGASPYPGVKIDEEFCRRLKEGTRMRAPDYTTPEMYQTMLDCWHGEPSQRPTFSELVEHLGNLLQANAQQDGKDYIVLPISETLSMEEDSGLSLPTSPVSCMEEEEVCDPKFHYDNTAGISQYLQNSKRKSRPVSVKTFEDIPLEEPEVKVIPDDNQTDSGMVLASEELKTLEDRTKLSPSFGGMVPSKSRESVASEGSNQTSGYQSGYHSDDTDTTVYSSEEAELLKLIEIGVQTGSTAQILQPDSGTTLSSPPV

Take `CC(=O)N1[C@H](C)CN(c2cc(-n3cnc(Nc4ccc(NC(=O)OC(C)C)cc4)n3)ccn2)C[C@@H]1C` [Compound I-89]: the Ki in assay [1] fell in the range of 500 to 1000 nM; in assay [2], 100 to 1000 nM; in assay [3], 10 to 1000 nM.

For `CC(=O)N1[C@H](C)CN(c2cc(-n3cnc(Nc4ccc(NC(=O)OCC(C)C)cc4)n3)ccn2)C[C@@H]1C` [Compound I-90], the inhibition constant Ki fell in the range of 500 to 1000 nM in assay [1], 100 to 1000 nM in assay [2] and 10 to 1000 nM in assay [3].

As to `CC(=O)N1[C@H](C)CN(c2cc(-n3cnc(Nc4ccc(NC(=O)OCC(C)(C)C)cc4)n3)ccn2)C[C@@H]1C` [Compound I-91], the results for the Ki in assay [1], in assay [2] and in assay [3] were 500 to 1000 nM, 100 to 1000 nM and 10 to 1000 nM, respectively.

For `CC(=O)N1[C@H](C)CN(c2cc(-n3cnc(Nc4ccc(N5CCN(S(=O)(=O)c6ccc(C)cc6)CC5)cc4)n3)ccn2)C[C@@H]1C` [Compound I-92], the figures for the inhibition constant (Ki) in assay [1], in assay [2] and in assay [3] were 500 to 1000 nM, under 100 nM and under 10 nM, respectively.

For `O=C(Nc1cc(-n2cnc(Nc3ccccc3)n2)ccn1)C1CCCCC1` [Compound I-93], the Ki in assay [1] is 500 to 1000 nM; in assay [2] it was 100 to 1000 nM; in assay [3], over 1000 nM.

On to `O=C(CC1CCCC1)Nc1cc(-n2cnc(Nc3ccccc3)n2)ccn1` [Compound I-94, 2-Cyclopentyl-N-[4-(3-phenylamino-[1,2,4]triazol-1-yl)-pyridin-2-yl]-acetamide], for which the figures for the inhibition constant Ki in assay [1], in assay [2] and in assay [3] were over 1000 nM, 100 to 1000 nM and 10 to 1000 nM, respectively.

Take `O=C(CCc1ccccc1)Nc1cc(-n2cnc(Nc3ccccc3)n2)ccn1` [Compound I-95]: the inhibition constant (Ki) in assay [1] was 500 to 1000 nM; in assay [2], 100 to 1000 nM; in assay [3] it was over 1000 nM.

For `O=C(Cc1ccccc1)Nc1cc(-n2cnc(Nc3ccccc3)n2)ccn1` [Compound I-96], the values for the Ki in assay [1], in assay [2] and in assay [3] were under 500 nM, 100 to 1000 nM and over 1000 nM, respectively.

Consider `CC(=O)N1[C@H](C)CN(c2cc(-n3cnc(Nc4ccc(N5CCN(C(=O)OC(C)(C)C)CC5)cc4)n3)ccn2)C[C@@H]1C` [Compound I-97, 4-(4-{1-[2-(4-Acetyl-3,5-dimethyl-piperazin-1-yl)-pyridin-4-yl]-1H-[1,2,4]triazol-3-ylamino}-phenyl)-piperazine-1-carboxylic acid tert-butyl ester], for which the inhibitory constant (Ki) in assay [1] was under 500 nM; in assay [2], under 100 nM; in assay [3] it was 10 to 1000 nM.

For `CCNC(=O)Nc1ccc(Nc2ncn(-c3ccnc(N4C[C@@H](C)N(C(C)=O)[C@@H](C)C4)c3)n2)cc1` [Compound I-98, 1-(4-{1-[2-(4-Acetyl-3,5-dimethyl-piperazin-1-yl)-pyridin-4-yl]-1H-[1,2,4]triazol-3-ylamino}-phenyl)-3-ethyl-urea], the figures for the Ki in assay [1], in assay [2] and in assay [3] were under 500 nM, under 100 nM and under 10 nM, respectively.

Regarding `CCCNC(=O)Nc1ccc(Nc2ncn(-c3ccnc(N4C[C@@H](C)N(C(C)=O)[C@@H](C)C4)c3)n2)cc1` [Compound I-99], the Ki in assay [1] was under 500 nM; in assay [2], under 100 nM; in assay [3], 10 to 1000 nM.

Turning to `CC(=O)N1[C@H](C)CN(c2cc(-n3cnc(Nc4ccc(NC(=O)NC(C)C)cc4)n3)ccn2)C[C@@H]1C` [Compound I-100], the values for the Ki in assay [1], in assay [2] and in assay [3] were under 500 nM, under 100 nM and under 10 nM, respectively.

As to `CC(=O)N1[C@H](C)CN(c2cc(-n3cnc(Nc4ccc(NC(=O)NC(C)(C)C)cc4)n3)ccn2)C[C@@H]1C` [Compound I-101], the inhibitory constant (Ki) in assay [1] was in the range of 500 to 1000 nM; in assay [2], 100 to 1000 nM; in assay [3] it was 10 to 1000 nM.

With `CC(C)(C)CC(=O)Nc1cc(-n2cnc(Nc3ccccc3)n2)ccn1` [Compound I-102], the inhibitory constant (Ki) in assay [1] is over 1000 nM; in assay [2] it was 100 to 1000 nM; in assay [3], over 1000 nM.

For `c1ccc(-n2cnc(Nc3ccnc(N4CCOCC4)c3)n2)cc1` [Compound I-105], the inhibition constant Ki was 500 to 1000 nM in assay [1], 100 to 1000 nM in assay [2] and 10 to 1000 nM in assay [3].

With `c1ccc(-n2cnc(Nc3ccc(N4CCOCC4)cc3)n2)cc1` [Compound I-106], the Ki in assay [1] is over 1000 nM; in assay [2], 100 to 1000 nM; in assay [3] it was 10 to 1000 nM.

As to `c1ccc(-n2cnc(Nc3ccnc(NCCN4CCOCC4)c3)n2)cc1` [Compound I-107], the Ki in assay [1], in assay [2] and in assay [3] was over 1000 nM each time.

`c1ccc(-n2cnc(Nc3ccc(N4CCOCC4)nc3)n2)cc1` [Compound I-134]: the inhibition constant (Ki) in assay [1] is over 1000 nM; in assay [2], 100 to 1000 nM; in assay [3], over 1000 nM.
